In US8883841B2, “Oncogenic ras-specific cytotoxic compound and methods of use thereof” (The Board of Regents of the University of Texas System, priority 2005, dated 2014):

What was measured:
OVCAR-3 = assay: NCI in-vitro testing, OVCAR-3 (Ovarian Cancer)
SK-OV-3 = assay: NCI in-vitro testing, SK-OV-3 (Ovarian Cancer)
HCC-2998 = assay: NCI in-vitro testing, HCC-2998 (Colon Cancer)
MCF7 = assay: NCI in-vitro testing, MCF7 (Breast Cancer)
RPMI-8226 = assay: NCI in-vitro testing, RPMI-8226 (Leukemia)
HCT-116 = assay: NCI in-vitro testing, HCT-116 (Colon Cancer)
TK-10 = assay: NCI in-vitro testing, TK-10 (Renal Cancer)
K-562 = assay: NCI in-vitro testing, K-562 (Leukemia)
MDA-MB-231/ATCC = assay: NCI in-vitro testing, MDA-MB-231/ATCC (Breast Cancer)
OVCAR-5 = assay: NCI in-vitro testing, OVCAR-5 (Ovarian Cancer)
NCI-H23 = assay: NCI in-vitro testing, NCI-H23 (Non-Small Cell Lung Cancer)

Structure (SMILES): O=Cc1cn(Cc2cccc(Cl)c2)c2ccccc12 [Oncrasin K027, 1-(3-chlorobenzyl)-1H-indole-3-carbaldehyde]
- GI50 (OVCAR-3; Homo sapiens, OVCAR-3): 0.569 µM
- CC50 (OVCAR-3; Homo sapiens, OVCAR-3, read-out: LC50): 69.1 µM
- TGI (OVCAR-3; OVCAR-3): 1.03E−5 Molar
- Percent Growth (OVCAR-3; OVCAR-3, Log10 Concentration −4.0 Molar): −60%
- Percent Growth (OVCAR-3; OVCAR-3, Log10 Concentration −5.0 Molar): 1%
- Percent Growth (OVCAR-3; OVCAR-3, Log10 Concentration −6.0 Molar): 41%
- Percent Growth (OVCAR-3; OVCAR-3, Log10 Concentration −7.0 Molar): 77%
- Percent Growth (OVCAR-3; OVCAR-3, Log10 Concentration −8.0 Molar): 95%
- GI50 (SK-OV-3; Homo sapiens, SK-OV-3): 1.82 µM
- CC50 (SK-OV-3; Homo sapiens, SK-OV-3, read-out: LC50): > 100 µM
- TGI (SK-OV-3; SK-OV-3): 2.95E−5 Molar
- Percent Growth (SK-OV-3; SK-OV-3, Log10 Concentration −4.0 Molar): −18%
- Percent Growth (SK-OV-3; SK-OV-3, Log10 Concentration −5.0 Molar): 16%
- Percent Growth (SK-OV-3; SK-OV-3, Log10 Concentration −6.0 Molar): 62%
- Percent Growth (SK-OV-3; SK-OV-3, Log10 Concentration −7.0 Molar): 85%
- Percent Growth (SK-OV-3; SK-OV-3, Log10 Concentration −8.0 Molar): 96%
- TGI (HCC-2998; HCC-2998): 2.04E−5 Molar
- Percent Growth (HCC-2998; HCC-2998, Log10 Concentration −4.0 Molar): −97%
- Percent Growth (HCC-2998; HCC-2998, Log10 Concentration −5.0 Molar): 43%
- Percent Growth (HCC-2998; HCC-2998, Log10 Concentration −6.0 Molar): 62%
- Percent Growth (HCC-2998; HCC-2998, Log10 Concentration −7.0 Molar): 86%
- Percent Growth (HCC-2998; HCC-2998, Log10 Concentration −8.0 Molar): 85%
- GI50 (HCC-2998; Homo sapiens, HCC 2998): 4.33 µM
- CC50 (HCC-2998; Homo sapiens, HCC 2998, read-out: LC50): 46.2 µM
- GI50 (MCF7; Homo sapiens, MCF7): 0.0873 µM
- CC50 (MCF7; Homo sapiens, MCF7, read-out: LC50): > 100 µM
- TGI (MCF7; MCF7): 2.75E−5 Molar
- Percent Growth (MCF7; MCF7, Log10 Concentration −4.0 Molar): −10%
- Percent Growth (MCF7; MCF7, Log10 Concentration −5.0 Molar): 8%
- Percent Growth (MCF7; MCF7, Log10 Concentration −6.0 Molar): 10%
- Percent Growth (MCF7; MCF7, Log10 Concentration −7.0 Molar): 45%
- Percent Growth (MCF7; MCF7, Log10 Concentration −8.0 Molar): 75%
- GI50 (RPMI-8226; Homo sapiens, RPMI-8226): 0.372 µM
- CC50 (RPMI-8226; Homo sapiens, RPMI-8226, read-out: LC50): > 100 µM
- TGI (RPMI-8226; RPMI-8226): 3.19E−6 Molar
- Percent Growth (RPMI-8226; RPMI-8226, Log10 Concentration −4.0 Molar): −35%
- Percent Growth (RPMI-8226; RPMI-8226, Log10 Concentration −5.0 Molar): −23%
- Percent Growth (RPMI-8226; RPMI-8226, Log10 Concentration −6.0 Molar): 24%
- Percent Growth (RPMI-8226; RPMI-8226, Log10 Concentration −7.0 Molar): 85%
- Percent Growth (RPMI-8226; RPMI-8226, Log10 Concentration −8.0 Molar): 119%
- TGI (HCT-116; HCT-116): 1.06E−5 Molar
- Percent Growth (HCT-116; HCT-116, Log10 Concentration −4.0 Molar): −84%
- Percent Growth (HCT-116; HCT-116, Log10 Concentration −5.0 Molar): 2%
- Percent Growth (HCT-116; HCT-116, Log10 Concentration −6.0 Molar): 10%
- Percent Growth (HCT-116; HCT-116, Log10 Concentration −7.0 Molar): 30%
- Percent Growth (HCT-116; HCT-116, Log10 Concentration −8.0 Molar): 68%
- GI50 (HCT-116; Homo sapiens, HCT-116): 0.0294 µM
- CC50 (HCT-116; Homo sapiens, HCT-116, read-out: LC50): 60.6 µM
- GI50 (TK-10; Homo sapiens, TK-10): 0.0153 µM
- CC50 (TK-10; Homo sapiens, TK-10, read-out: LC50): > 100 µM
- TGI (TK-10; TK-10): 8.84E−8 Molar
- Percent Growth (TK-10; TK-10, Log10 Concentration −4.0 Molar): −16%
- Percent Growth (TK-10; TK-10, Log10 Concentration −5.0 Molar): −8%
- Percent Growth (TK-10; TK-10, Log10 Concentration −6.0 Molar): −10%
- Percent Growth (TK-10; TK-10, Log10 Concentration −7.0 Molar): −3%
- Percent Growth (TK-10; TK-10, Log10 Concentration −8.0 Molar): 62%
- GI50 (K-562; Homo sapiens, K562): 0.0192 µM
- CC50 (K-562; Homo sapiens, K562, read-out: LC50): 54.5 µM
- TGI (K-562; K-562): 1.26E−5 Molar
- Percent Growth (K-562; K-562, Log10 Concentration −4.0 Molar): −71%
- Percent Growth (K-562; K-562, Log10 Concentration −5.0 Molar): 8%
- Percent Growth (K-562; K-562, Log10 Concentration −6.0 Molar): 87%
- Percent Growth (K-562; K-562, Log10 Concentration −7.0 Molar): 100%
- Percent Growth (K-562; K-562, Log10 Concentration −8.0 Molar): 114%
- GI50 (MDA-MB-231/ATCC; Homo sapiens, MDA-MB-231): 11 µM
- CC50 (MDA-MB-231/ATCC; Homo sapiens, MDA-MB-231, read-out: LC50): > 100 µM
- TGI (MDA-MB-231/ATCC; MDA-MB-231/ATCC): 4.23E−5 Molar
- Percent Growth (MDA-MB-231/ATCC; MDA-MB-231/ATCC, Log10 Concentration −4.0 Molar): −32%
- Percent Growth (MDA-MB-231/ATCC; MDA-MB-231/ATCC, Log10 Concentration −5.0 Molar): 55%
- Percent Growth (MDA-MB-231/ATCC; MDA-MB-231/ATCC, Log10 Concentration −6.0 Molar): 109%
- Percent Growth (MDA-MB-231/ATCC; MDA-MB-231/ATCC, Log10 Concentration −7.0 Molar): 120%
- Percent Growth (MDA-MB-231/ATCC; MDA-MB-231/ATCC, Log10 Concentration −8.0 Molar): 105%
- GI50 (OVCAR-5; Homo sapiens, OVCAR-5): < 0.01 µM
- CC50 (OVCAR-5; Homo sapiens, OVCAR-5, read-out: LC50): > 100 µM
- TGI (OVCAR-5; OVCAR-5): 3.72E−7 Molar
- Percent Growth (OVCAR-5; OVCAR-5, Log10 Concentration −4.0 Molar): −50%
- Percent Growth (OVCAR-5; OVCAR-5, Log10 Concentration −5.0 Molar): −23%
- Percent Growth (OVCAR-5; OVCAR-5, Log10 Concentration −6.0 Molar): −7%
- Percent Growth (OVCAR-5; OVCAR-5, Log10 Concentration −7.0 Molar): 10%
- Percent Growth (OVCAR-5; OVCAR-5, Log10 Concentration −8.0 Molar): 43%
- GI50 (NCI-H23; Homo sapiens, NCI-H23): 2.9 µM
- CC50 (NCI-H23; Homo sapiens, NCI-H23, read-out: LC50): 71.1 µM
- TGI (NCI-H23; NCI-H23): 2.10E−5 Molar
- Percent Growth (NCI-H23; NCI-H23, Log10 Concentration −4.0 Molar): −54%
- Percent Growth (NCI-H23; NCI-H23, Log10 Concentration −5.0 Molar): 31%
- Percent Growth (NCI-H23; NCI-H23, Log10 Concentration −6.0 Molar): 57%
- Percent Growth (NCI-H23; NCI-H23, Log10 Concentration −7.0 Molar): 82%
- Percent Growth (NCI-H23; NCI-H23, Log10 Concentration −8.0 Molar): 94%
